In patent US20140228349A1, “5,7-SUBSTITUTED-IMIDAZO[1,2-C]PYRIMIDINES” (Array BioPharma Inc., priority 2011, published 2014):

Assays:
Assay type in all cases: biochemical
[1] = molecular target: T1, Human Tyk2 kinase domain (Homo sapiens, UniProt P29597); experiment: Tyk2 Inhibition Assay (Omnia kinase fluorescence peptide substrate); details: averaged IC50 ranges; 10 μM (Km app) or 1 mM ATP, 2 nM Tyk2
T1 construct: comprising amino acids 886 to 1187; His10 (10 histidine residues) (C, cleaved yes); made in house
T1 sequence (P29597 886-1187): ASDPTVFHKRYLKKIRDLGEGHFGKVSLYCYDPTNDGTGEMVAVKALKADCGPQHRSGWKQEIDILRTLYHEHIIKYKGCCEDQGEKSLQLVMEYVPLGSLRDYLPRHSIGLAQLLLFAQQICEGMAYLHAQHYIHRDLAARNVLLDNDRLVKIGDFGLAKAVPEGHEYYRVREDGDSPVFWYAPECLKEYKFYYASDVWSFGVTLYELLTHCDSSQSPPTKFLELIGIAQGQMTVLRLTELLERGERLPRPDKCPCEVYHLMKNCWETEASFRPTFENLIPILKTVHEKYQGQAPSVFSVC
Excerpt: (§1) The assays described in Examples A, B, C and D for the determination of Tyk2, JAK1, JAK2 and JAK3 kinase activity, respectively, utilized the Omnia® Kinase fluorescence peptide substrate-based technology (Invitrogen). The specific components of the assay mixture are described in Examples A, B, C and D. In these assays, Mg^2+ is chelated upon phosphorylation of the Omnia peptide by the kinase to form a bridge between the chelation-enhanced fluorophore Sox and the phosphate, resulting in an increase in fluorescence emission at 485 nm when excited at […]. The reactions were therefore read at excitation 360 nm and emission was measured at 485 nm every 50 seconds for 45 minutes using a PerkinElmer EnVision Multilabel Plate Reader.
(§2) The final buffer conditions for Tyk2, JAK1, JAK2, and JAK3 assays were as follows: 25 mM HEPES, pH 7.4, 10 mM MgCl2, 0.01% Triton X-100 and 1 mM DTT.
(§3) Compounds were prepared at 50× the final concentration in DMSO by conducting 3-fold serial dilutions from a 500-μM intermediate dilution to give a 10-point dosing curve having a high dose of 10 μM. Two-μL aliquots of these were transferred to a fresh plate for a ten-fold intermediate dilution with assay buffer. Five-μL aliquots of the diluted compounds were then transferred to 20-μL of assay mixtures described in Examples A, B, C and D for a final concentration of DMSO of 2%. A standard or reference compound was typically included on each assay plate to validate that plate. For each plate, percent of control (POC) values were calculated for each well according to the following equation: […]
(§4) IC50's were estimated from the POC's using a standard 4-parameter logistic model:
(§5) The IC50 is defined as the concentration of inhibitor at which the POC equals 50 for the fitted curve.
Compounds of Formula I were screened for their ability to inhibit Tyk2 using the general enzyme inhibition assay method, in which the assay mixture contained 10 μM (Km app) or 1 mM ATP, 8 μM Omnia® Y12 peptide (Catalog #IVGN KPZ3121C; Invitrogen Corporation, Carlsbad, Calif.) and 2 nM Tyk2 in a total volume of 20 μL. Human Tyk2 kinase domain, comprising amino acids 886 to 1187 with 10 additional histidine residues (histidine tag) on the carboxy terminus, was expressed and purified from bacculovirus in-house at Array BioPharma Inc. (Boulder, Colo.). The histidine tag was cleaved after purification using standard conditions.

[2] = molecular target: T2, JAK1 (Homo sapiens, UniProt P23458); experiment: JAK1 Inhibition Assay (Omnia kinase fluorescence peptide substrate); details: averaged IC50 ranges; 40 μM (Km app) or 1 mM ATP, 15 nM JAK1
T2 construct: purchased Invitrogen Corporation, Carlsbad, Calif; IVGN PV4775
T2 sequence (P23458 whole entry): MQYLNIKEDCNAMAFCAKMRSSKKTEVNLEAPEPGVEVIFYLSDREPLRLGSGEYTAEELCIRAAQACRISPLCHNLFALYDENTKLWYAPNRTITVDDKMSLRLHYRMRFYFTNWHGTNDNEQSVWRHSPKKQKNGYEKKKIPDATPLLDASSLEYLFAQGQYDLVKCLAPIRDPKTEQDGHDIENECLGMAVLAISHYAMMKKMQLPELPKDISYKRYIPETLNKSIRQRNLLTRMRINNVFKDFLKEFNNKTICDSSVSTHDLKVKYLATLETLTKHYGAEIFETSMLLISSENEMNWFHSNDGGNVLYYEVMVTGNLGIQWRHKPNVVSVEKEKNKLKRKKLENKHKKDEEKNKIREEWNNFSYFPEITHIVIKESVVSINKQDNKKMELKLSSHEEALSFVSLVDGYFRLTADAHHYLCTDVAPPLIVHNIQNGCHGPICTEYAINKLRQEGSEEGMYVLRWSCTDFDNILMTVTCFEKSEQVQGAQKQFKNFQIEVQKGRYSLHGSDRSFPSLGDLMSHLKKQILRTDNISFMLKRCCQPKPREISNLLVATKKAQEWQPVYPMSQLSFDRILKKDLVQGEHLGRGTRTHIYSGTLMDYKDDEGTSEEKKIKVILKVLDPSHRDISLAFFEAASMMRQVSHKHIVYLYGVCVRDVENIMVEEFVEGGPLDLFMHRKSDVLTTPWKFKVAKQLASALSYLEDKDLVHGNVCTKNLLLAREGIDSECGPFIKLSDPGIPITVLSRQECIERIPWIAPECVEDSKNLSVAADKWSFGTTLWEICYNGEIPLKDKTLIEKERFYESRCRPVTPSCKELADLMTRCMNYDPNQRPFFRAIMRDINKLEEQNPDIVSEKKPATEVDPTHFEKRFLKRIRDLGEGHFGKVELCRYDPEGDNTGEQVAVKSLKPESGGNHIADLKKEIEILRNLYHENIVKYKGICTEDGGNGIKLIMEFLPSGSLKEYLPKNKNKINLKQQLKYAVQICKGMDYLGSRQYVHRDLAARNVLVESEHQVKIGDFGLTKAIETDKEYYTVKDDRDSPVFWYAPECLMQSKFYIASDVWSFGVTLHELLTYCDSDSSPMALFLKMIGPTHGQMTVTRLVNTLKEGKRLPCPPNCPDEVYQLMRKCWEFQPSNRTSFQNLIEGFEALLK
Excerpt: as §1, §2, §3, §4, §5
Compounds of Formula I were screened for their ability to inhibit JAK1 using the general enzyme inhibition assay method, in which the assay mixture contained 40 μM (Km app) or 1 mM ATP, 8 μM Omnia® Y12 peptide (Catalog #IVGN KPZ3121C; Invitrogen Corporation, Carlsbad, Calif.) and 15 nM JAK1 in a total volume of 20 μL. JAK1 was purchased from Invitrogen Corporation, Carlsbad, Calif. (catalog #IVGN PV4775).

[3] = molecular target: T3, JAK2 (Homo sapiens, UniProt O60674); experiment: JAK2 Inhibition Assay (Omnia kinase fluorescence peptide substrate); details: averaged IC50 ranges; 25 μM (Km app) or 1 mM ATP, 5 nM JAK2
T3 construct: purchased Invitrogen Corporation, Carlsbad, Calif; IVGN PV4288
T3 sequence (O60674 whole entry): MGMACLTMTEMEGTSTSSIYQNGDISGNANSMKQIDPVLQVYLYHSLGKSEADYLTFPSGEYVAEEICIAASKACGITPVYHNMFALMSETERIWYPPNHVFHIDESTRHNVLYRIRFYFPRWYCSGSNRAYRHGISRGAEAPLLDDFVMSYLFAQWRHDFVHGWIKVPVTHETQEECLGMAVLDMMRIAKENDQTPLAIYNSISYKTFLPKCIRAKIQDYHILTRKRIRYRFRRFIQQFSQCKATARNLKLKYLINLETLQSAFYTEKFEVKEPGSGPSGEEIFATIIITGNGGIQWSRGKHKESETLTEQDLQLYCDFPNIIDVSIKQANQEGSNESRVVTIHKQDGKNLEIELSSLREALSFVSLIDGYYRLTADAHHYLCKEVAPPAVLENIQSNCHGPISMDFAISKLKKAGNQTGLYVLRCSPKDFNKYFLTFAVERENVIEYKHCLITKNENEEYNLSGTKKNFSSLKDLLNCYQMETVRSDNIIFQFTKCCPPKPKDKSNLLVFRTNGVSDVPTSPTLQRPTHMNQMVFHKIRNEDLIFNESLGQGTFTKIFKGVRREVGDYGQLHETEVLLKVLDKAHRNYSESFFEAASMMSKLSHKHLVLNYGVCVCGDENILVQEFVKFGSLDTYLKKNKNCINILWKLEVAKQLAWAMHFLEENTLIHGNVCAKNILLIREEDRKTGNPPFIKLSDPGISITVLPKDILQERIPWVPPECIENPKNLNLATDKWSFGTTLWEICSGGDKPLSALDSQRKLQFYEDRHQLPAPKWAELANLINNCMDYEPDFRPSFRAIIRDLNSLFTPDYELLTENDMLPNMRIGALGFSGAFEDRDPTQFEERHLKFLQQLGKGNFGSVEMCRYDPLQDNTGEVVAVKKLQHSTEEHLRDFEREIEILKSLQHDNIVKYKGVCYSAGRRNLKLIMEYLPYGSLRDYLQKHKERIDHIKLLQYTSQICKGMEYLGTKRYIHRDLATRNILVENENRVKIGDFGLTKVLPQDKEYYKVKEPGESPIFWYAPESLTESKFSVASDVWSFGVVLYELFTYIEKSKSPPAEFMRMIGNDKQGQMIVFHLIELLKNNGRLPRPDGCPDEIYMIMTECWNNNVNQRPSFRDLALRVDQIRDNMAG
Excerpt: as §1, §2, §3, §4, §5
(§6) Compounds of Formula I were screened for their ability to inhibit JAK2 using the general enzyme inhibition assay method, in which the assay mixture contained 25 μM (Km app) or 1 mM ATP, 10 μM Omnia® Y7 peptide (Catalog #IVGN KNZ3071C, Invitrogen Corporation, Carlsbad, Calif.) and 5 nM JAK2 in a total volume of 20 μL. JAK2 was purchased from Invitrogen Corporation, Carlsbad, Calif. (catalog #IVGN PV4288).

[4] = molecular target: T4, JAK3 (Homo sapiens, UniProt P52333); experiment: JAK3 Inhibition Assay (Omnia kinase fluorescence peptide substrate); details: averaged IC50 ranges; 10 μM (Km app) or 1 mM ATP, 2.5 nM JAK3
T4 construct: purchased Invitrogen Corporation, Carlsbad, Calif; IVGN PV4080
T4 sequence (P52333 1-1124): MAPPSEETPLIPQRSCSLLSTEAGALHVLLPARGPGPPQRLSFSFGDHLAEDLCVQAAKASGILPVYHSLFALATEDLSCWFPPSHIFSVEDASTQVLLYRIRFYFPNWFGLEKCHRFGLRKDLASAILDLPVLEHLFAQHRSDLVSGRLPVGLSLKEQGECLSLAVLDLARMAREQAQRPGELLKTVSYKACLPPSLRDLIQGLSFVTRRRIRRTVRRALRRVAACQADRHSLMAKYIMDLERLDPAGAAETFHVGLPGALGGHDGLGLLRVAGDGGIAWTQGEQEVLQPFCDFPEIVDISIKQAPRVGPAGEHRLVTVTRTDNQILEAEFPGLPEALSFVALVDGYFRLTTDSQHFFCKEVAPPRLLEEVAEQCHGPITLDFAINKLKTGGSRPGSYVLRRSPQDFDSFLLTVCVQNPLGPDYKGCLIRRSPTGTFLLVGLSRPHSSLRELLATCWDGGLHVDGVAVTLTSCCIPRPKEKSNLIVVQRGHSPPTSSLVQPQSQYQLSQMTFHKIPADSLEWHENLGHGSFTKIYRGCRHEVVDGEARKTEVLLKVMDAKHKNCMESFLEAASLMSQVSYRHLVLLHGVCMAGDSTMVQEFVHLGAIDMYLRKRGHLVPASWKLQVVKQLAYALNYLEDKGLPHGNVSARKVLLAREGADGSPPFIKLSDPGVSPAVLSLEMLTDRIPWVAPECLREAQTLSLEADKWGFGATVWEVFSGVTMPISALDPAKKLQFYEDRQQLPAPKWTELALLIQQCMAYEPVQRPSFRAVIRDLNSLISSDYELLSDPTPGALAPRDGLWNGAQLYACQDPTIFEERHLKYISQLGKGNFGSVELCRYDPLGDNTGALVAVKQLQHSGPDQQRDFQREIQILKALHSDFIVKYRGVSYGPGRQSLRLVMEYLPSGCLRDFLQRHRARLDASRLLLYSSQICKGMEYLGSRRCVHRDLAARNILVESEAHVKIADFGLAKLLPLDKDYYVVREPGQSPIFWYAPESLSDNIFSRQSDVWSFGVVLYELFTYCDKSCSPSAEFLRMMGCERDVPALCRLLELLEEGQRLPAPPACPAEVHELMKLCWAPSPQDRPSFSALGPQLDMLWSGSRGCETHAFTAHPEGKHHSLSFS
Excerpt: as §1, §2, §3, §4, §5
as §6, with “JAK3” for “JAK2”, “10” for “25”, “2.5” for “5”, “PV4080).” for “PV4288).”

SMILES	IC50 [1]	IC50 [2]	IC50 [3]	IC50 [4]
Cn1cc(-c2cc3nccn3c(-c3cnn(C4(CC(=O)O)CN(S(=O)(=O)C(F)(F)F)C4)c3)n2)cn1 [Example 2, 2-(3-(4-(7-(1-methyl-1H-pyrazol-4-yl)imidazo[1,2-c]pyrimidin-5-yl)-1H-pyrazol-1-yl)-1-((trifluoromethyl)sulfonyl)azetidin-3-yl)acetic acid]	100 to 1000 nM	> 1000 nM	> 1000 nM	> 1000 nM
Cn1cc(-c2cc3nccn3c(-c3ccn(C4(CCF)CN(S(=O)(=O)C(F)(F)F)C4)c3)n2)cn1 [Example 26, 5-(1-(3-(2-fluoroethyl)-1-((trifluoromethyl)sulfonyl)azetidin-3-yl)-1H-pyrrol-3-yl)-7-(1-methyl-1H-pyrazol-4-yl)imidazo[1,2-c]pyrimidine]	< 10 nM	10 to 100 nM	10 to 100 nM	10 to 100 nM
Cn1cc(-c2cc3nccn3c(-c3cnn(C(CCO)C4CCC4)c3)n2)cn1 (stereo not drawn) [Example 68, 3-cyclobutyl-3-(4-(7-(1-methyl-1H-pyrazol-4-yl)imidazo[1,2-c]pyrimidin-5-yl)-1H-pyrazol-1-yl)propan-1-ol]	100 to 1000 nM	> 1000 nM	> 1000 nM	> 1000 nM
CCOC(=O)CC(C1CC1)n1cc(-c2nc(-c3cnn(C)c3)cc3nccn23)cn1 (stereo not drawn) [Example 12, Ethyl 3-cyclopropyl-3-(4-(7-(1-methyl-1H-pyrazol-4-yl)imidazo[1,2-c]pyrimidin-5-yl)-1H-pyrazol-1-yl)propanoate]	100 to 1000 nM	> 1000 nM	> 1000 nM	> 1000 nM
CC(=O)CC(C1CC1)n1cc(-c2nc(-c3cnn(C)c3)cc3nccn23)cn1 (stereo not drawn) [Example 61, 4-cyclopropyl-4-(4-(7-(1-methyl-1H-pyrazol-4-yl)imidazo[1,2-c]pyrimidin-5-yl)-1H-pyrazol-1-yl)butan-2-one]	100 to 1000 nM	> 1000 nM	100 to 1000 nM	> 1000 nM
Cn1cc(-c2cc3nccn3c(-c3cnn(C(C/C=C\F)C4CC4)c3)n2)cn1 (stereo not drawn) [Example 44, (Z)-5-(1-(1-cyclopropyl-4-fluorobut-3-en-1-yl)-1H-pyrazol-4-yl)-7-(1-methyl-1H-pyrazol-4-yl)imidazo[1,2-c]pyrimidine]	10 to 100 nM	100 to 1000 nM	10 to 100 nM	100 to 1000 nM
CC(C)S(=O)(=O)N1CC(CCF)(n2cc(-c3nc(-c4cnn(C)c4)cc4nccn34)cn2)C1 [Example 95, 5-(1-(3-(2-fluoroethyl)-1-(isopropylsulfonyl)azetidin-3-yl)-1H-pyrazol-4-yl)-7-(1-methyl-1H-pyrazol-4-yl)imidazo[1,2-c]pyrimidine]	100 to 1000 nM	> 1000 nM	100 to 1000 nM	> 1000 nM
COCCC1(n2cc(-c3nc(-c4cnn(C)c4)cc4nccn34)cn2)CN(S(=O)(=O)C(F)(F)F)C1 [Example 100, 5-(1-(3-(2-methoxyethyl)-1-((trifluoromethyl)sulfonyl)azetidin-3-yl)-1H-pyrazol-4-yl)-7-(1-methyl-1H-pyrazol-4-yl)imidazo[1,2-c]pyrimidine]	< 10 nM	10 to 100 nM	10 to 100 nM	100 to 1000 nM
Cn1cc(-c2cc3nccn3c(-c3ccn(C(CCF)C4CC4)c3)n2)cn1 (stereo not drawn) [Example 25, 5-(1-(1-cyclopropyl-3-fluoropropyl)-1H-pyrrol-3-yl)-7-(1-methyl-1H-pyrazol-4-yl)imidazo[1,2-c]pyrimidine]	< 10 nM	10 to 100 nM	10 to 100 nM	10 to 100 nM
Cn1cc(-c2cc3nccn3c(-c3cnn(C(CCC(F)F)C4CC4)c3)n2)cn1 (stereo not drawn) [Example 47, 5-(1-(1-cyclopropyl-4,4-difluorobutyl)-1H-pyrazol-4-yl)-7-(1-methyl-1H-pyrazol-4-yl)imidazo[1,2-c]pyrimidine]	10 to 100 nM	100 to 1000 nM	10 to 100 nM	100 to 1000 nM
Cn1cc(-c2cc3nccn3c(-c3cnn(C(CC4CC4)CC4CC4)c3)n2)cn1 [Example 11, 5-(1-(1,3-Dicyclopropylpropan-2-yl)-1H-pyrazol-4-yl)-7-(1-methyl-1H-pyrazol-4-yl)imidazo[1,2-c]pyrimidine]	10 to 100 nM	100 to 1000 nM	10 to 100 nM	100 to 1000 nM
Cn1ccc(-c2cc3nccn3c(-c3cnn(C4(CCF)CN(S(=O)(=O)C(F)(F)F)C4)c3)n2)cc1=O [Example 79, 4-(5-(1-(3-(2-fluoroethyl)-1-((trifluoromethyl)sulfonyl)azetidin-3-yl)-1H-pyrazol-4-yl)imidazo[1,2-c]pyrimidin-7-yl)-1-methylpyridin-2(1H)-one]	10 to 100 nM	100 to 1000 nM	100 to 1000 nM	100 to 1000 nM
